Read-outs that look alike come from different tables or passages of the source. Starred links: 1 amine or outer side, 2 acyl side, 3 side chain; linkers in the order of their positions; H or OH if unused. Positions of bridges follow the written chain, without caps; N, C: chain ends. Non-standard residues stand in square brackets, D forms with d. Residues, ends and D or L forms follow the SMILES beside them. ξ: configuration not given here. *: point of attachment. Succinyl(O-RRR-αToc) = Cc1c(C)c2c(c(C)c1OC(=O)CCC(=O)*)CC[C@@](C)(CCC[C@H](C)CCC[C@H](C)CCCC(C)C)O2; X22 = CCCCCCCCCCCCCC(=O)N[C@H](CCC(=O)NCCCC[C@H](NC(=O)CCC(=O)NCCCOCCOCCOCCCN*)C(N)=O)C(=O)O; X6 = O=C(O)CCCCCCCCCCCCCCCCC(=O)N[C@@H](CCC(=O)NCCCOCCOCCOCCCN*)C(=O)O; X18 = O=C(O)CCCCCCCCCCCCCCC(=O)N[C@@H](CC(=O)NCCCOCCOCCOCCCN*)C(=O)O; Trp(1-CH2COOH) = N[C@@H](Cc1cn(CC(=O)O)c2ccccc12)C(=O)O; X21 = O=C([C@H](CC1=CC(CCCCCN[*:3])N=N1)N[*:1])[*:2]; X14 = O=C(O)CCCCCCCCCCNC(=O)CCC(=O)NCCCOCCOCCOCCCN*; d(cisHyp) = O=C(O)[C@H]1C[C@@H](O)CN1; X19 = O=C(C1C[C@H](O)CN1[*:1])[*:2]; PEG6 = NCCOCCOCCOCCOCCOCCOCCC(=O)O; Hyp = O=C(O)[C@@H]1C[C@@H](O)CN1; Myristoyl = CCCCCCCCCCCCCC(=O)*; NMeNle = CCCC[C@H](NC)C(=O)O; NMeA = CN[C@@H](C)C(=O)O; Dab = NCC[C@H](N)C(=O)O; Dap = NC[C@H](N)C(=O)O; ξC = NC(CS)C(=O)O
Target: T1, PD-L1 (Homo sapiens, UniProt Q9NZQ7)
T1 construct: hPDL1(19-239)-TVMV-His; made in house; host or cells: HEK293T
T1 sequence (Q9NZQ7 with tags, fused parts or gaps): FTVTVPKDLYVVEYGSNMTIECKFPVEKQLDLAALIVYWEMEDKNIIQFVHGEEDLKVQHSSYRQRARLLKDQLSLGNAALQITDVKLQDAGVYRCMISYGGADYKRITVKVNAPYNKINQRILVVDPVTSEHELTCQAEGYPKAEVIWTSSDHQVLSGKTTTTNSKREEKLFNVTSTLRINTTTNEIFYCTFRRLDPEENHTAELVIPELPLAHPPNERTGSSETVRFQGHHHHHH
Experiment: PD-1/PD-L1 Homogenous Time-Resolved Fluorescence (HTRF) binding assay (PD-1-Ig/PD-L1-His)
In short: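 HTRF competition in dPBS with 0.1% BSA and 0.05% Tween-20: 20 nM PD-1-Ig added after 15 min compound pre-incubation with 10 nM PD-L1-His, then another 15 min. Signal (665/620 nm) after 30 min with APC anti-His (20 nM) and Eu anti-Ig (1 nM).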

[1] = inhibition of PD-1-Ig binding to PD-L1-TVMV-His, value given as range class, read-out: HTRF IC50

Row | Compound | IC50 [1] [µM] | IC50 [µM]
1 | CCCCCCCCCCCCCC(=O)N[C@H](CCC(=O)NCCCC[C@H](NC(=O)CCC(=O)NCCCOCCOCCOCCCNC(=O)CNC(=O)[C@@H]1CSCC(=O)N[C@@H](Cc2ccc(O)cc2)C(=O)N(C)[C@@H](C)C(=O)N[C@@H](CC(=O)O)C(=O)N2CCC[C@H]2C(=O)N[C@@H](Cc2cnc[nH]2)C(=O)N[C@@H](CC(C)C)C(=O)N2C[C@H](O)C[C@H]2C(=O)N[C@@H](Cc2c[nH]c3ccccc23)C(=O)N[C@@H](CO)C(=O)N[C@@H](Cc2c[nH]c3ccccc23)C(=O)N(C)[C@@H](CCCC)C(=O)N(C)[C@@H](CCCC)C(=O)N[C@@H](CCCNC(=N)N)C(=O)N1)C(N)=O)C(=O)O [Example 11125] ({CH2CO}-Y[NMeA]DPHL[Hyp]WSW[NMeNle][NMeNle]RCG-X22; thioether N-14) | 0.01 to 0.099 | –
2 | CCCC[C@H]1C(=O)N(C)[C@@H](CCCC)C(=O)N[C@@H](CC(C)C)C(=O)N[C@H](C(=O)NCC(=O)N[C@@H](CC(=O)O)C(=O)NCCCOCCOCCOCCCNC(=O)CC[C@H](NC(=O)CCCCCCCCCCCCCCCCC(=O)O)C(=O)O)CSCC(=O)N[C@@H](Cc2ccc(O)cc2)C(=O)N(C)[C@@H](C)C(=O)N[C@@H](CC(N)=O)C(=O)N2CCC[C@H]2C(=O)N[C@@H](CN)C(=O)N[C@@H](CC(C)C)C(=O)N2C[C@H](O)C[C@@H]2C(=O)N[C@@H](Cc2c[nH]c3ccccc23)C(=O)N[C@@H](CCN)C(=O)N[C@@H](Cc2cn(CC(=O)O)c3ccccc23)C(=O)N1C [Example 11166] ({CH2CO}-Y[NMeA]NP[Dap]L[d(cisHyp)]W[Dab][Trp(1-CH2COOH)][NMeNle][NMeNle]LCGD-X6; thioether N-14) | 0.1 to 1.6 | –
3 | CCCC[C@H]1C(=O)N(C)[C@@H](CCCC)C(=O)N[C@@H](CC(C)C)C(=O)N[C@@H](C(=O)N[C@@H](CC(=O)O)C(=O)N[C@@H](CCC(=O)NCCCOCCOCCOCCCNC(=O)C[C@H](NC(=O)CCCCCCCCCCCCCCC(=O)O)C(=O)O)C(=O)O)CSCC(=O)N[C@@H](Cc2ccc(O)cc2)C(=O)N(C)[C@@H](C)C(=O)N[C@@H](CC(N)=O)C(=O)N2CCC[C@@H]2C(=O)N[C@@H](CN)C(=O)N[C@@H](CC(C)C)C(=O)N2C[C@@H](O)CC2C(=O)N[C@@H](Cc2c[nH]c3ccccc23)C(=O)N[C@@H](CCN)C(=O)N[C@@H](Cc2cn(CC(=O)O)c3ccccc23)C(=O)N1C (stereo partly drawn) [Example 11245] ({CH2CO}-Y[NMeA]N[dP][Dap]L[X19]W[Dab][Trp(1-CH2COOH)][NMeNle][NMeNle]L[dC]DE(X18)-OH; thioether N-14) | 0.01 to 0.099 | –
4 | CCCC[C@H]1C(=O)N(C)[C@@H](CCCC)C(=O)N[C@@H](CCCNC(=N)N)C(=O)N[C@H](C(=O)NCC(=O)NCCCOCCOCCOCCCNC(=O)CCC(=O)NCCCCCCCCCCC(=O)O)CSCC(=O)N[C@@H](Cc2ccc(O)cc2)C(=O)N(C)[C@@H](C)C(=O)N[C@@H](CC(=O)O)C(=O)N2CCC[C@H]2C(=O)N[C@@H](Cc2cnc[nH]2)C(=O)N[C@@H](CC(C)C)C(=O)N2C[C@H](O)C[C@H]2C(=O)N[C@@H](Cc2c[nH]c3ccccc23)C(=O)N[C@@H](CO)C(=O)N[C@@H](Cc2c[nH]c3ccccc23)C(=O)N1C [Example 11068] ({CH2CO}-Y[NMeA]DPHL[Hyp]WSW[NMeNle][NMeNle]RCG-X14; thioether N-14) | 0.0003 to 0.0099 | –
5 | CCCC[C@H]1C(=O)N(C)[C@@H](CCCC)C(=O)N[C@@H](CCC(=O)O)C(=O)N[C@H](C(=O)NCC(=O)N[C@@H](CC2=CC(CCCCCNC(=O)CCC(=O)Oc3c(C)c(C)c4c(c3C)CC[C@@](C)(CCC[C@H](C)CCC[C@H](C)CCCC(C)C)O4)N=N2)C(=O)NCC(N)=O)CSCC(=O)N[C@@H](Cc2ccc(O)cc2)C(=O)N(C)[C@@H](C)C(=O)N[C@@H](CC(=O)O)C(=O)N2CCC[C@H]2C(=O)N[C@@H](Cc2c[nH]cn2)C(=O)N[C@@H](CCCCN)C(=O)N2C[C@H](O)C[C@H]2C(=O)N[C@@H](Cc2c[nH]c3ccccc23)C(=O)N[C@@H](CCCCN)C(=O)N[C@@H](Cc2c[nH]c3ccccc23)C(=O)N1C (stereo partly drawn) [Example 14051] ({CH2CO}-Y[NMeA]DPHK[Hyp]WKW[NMeNle][NMeNle]ECG[X21](Succinyl(O-RRR-αToc))G-NH2; thioether N-14) | – | 0.1 to 1.6
6 | CCCCCCCCCCCCCC(=O)NCCCC[C@H](NC(=O)CCOCCOCCOCCOCCOCCOCCNC(=O)CNC(=O)C1CSCC(=O)N[C@@H](Cc2ccc(O)cc2)C(=O)N(C)[C@@H](C)C(=O)N[C@@H](CC(=O)O)C(=O)N2CCC[C@H]2C(=O)N[C@@H](Cc2cnc[nH]2)C(=O)N[C@@H](CC(C)C)C(=O)N2C[C@H](O)C[C@H]2C(=O)N[C@@H](Cc2c[nH]c3ccccc23)C(=O)N[C@@H](CO)C(=O)N[C@@H](Cc2c[nH]c3ccccc23)C(=O)N(C)[C@@H](CCCC)C(=O)N(C)[C@@H](CCCC)C(=O)N[C@@H](CCCNC(=N)N)C(=O)N1)C(N)=O (stereo partly drawn) [Example 11015] ({CH2CO}-Y[NMeA]DPHL[Hyp]WSW[NMeNle][NMeNle]R[ξC]G[PEG6]K(Myristoyl)-NH2; thioether N-14) | 0.01 to 0.099 | –
